Source: patent US20080213785A1, “Method of predicting a benefit of antioxidant therapy for prevention or treatment of vasclar disease in hyperglycemic individuals” (priority 2000, published 2008)
Marks after values point to notes of the source that are not given here.

Key:
[1] = value for 1 mg; cited from earlier work
[2] = tested on: patients at high risk of cardiovascular events; assay: HOPE study: CV outcomes with vitamin E or ramipril by haptoglobin phenotype; assay type: in vivo, human; conditions: for benefit of supplementation: unselected DM group
Text: HOPE study and patient characteristics: The Heart Outcomes Prevention Evaluation (HOPE) study was designed to test the hypotheses that two preventive intervention strategies, namely angiotensin-converting enzyme (ACE) inhibition or vitamin E, would improve morbidity and mortality in patients at high risk of cardiovascular events compared with placebo. Patients were included in the study who were considered to be at high risk of future fatal or non-fatal cardiovascular events, by virtue of their age (>55 years), existing or previous cardiovascular disease, or diabetes. Diabetics had at least one other risk factor, either known vascular disease or other factors such as cigarette smoking, high cholesterol or hypertension. Ramipril or placebo was added to concomitant medication, which included, in a substantial proportion of patients, antihypertensive drugs (excluding ACE-I), lipid-lowering agents or aspirin. The HOPE study design and protocols have been previously described in detail (see, for example, The Heart Outcomes Prevention Evaluation Study Investigators NE J Med, 2000; 342:154-60 and […] Angioten Aldost Sys 2000; 1:18-20). Briefly, the study population consisted over 9,451 patients at high risk of CVD (3,654 DM). […] Patients were followed for a mean of 4.5 years. The primary study outcome was the composite of non-fatal MI, stroke or cardiovascular death. For samples from the HOPE Study, haptoglobin phenotyping was performed from 10 ul of plasma by polyacrylamide gel electrophoresis according to established methods (Hochberg I et al Atherosclerosis 2002; 161:441-446). A signature banding pattern is obtained from individuals who are homozygous for the 1 allele (Hp 1-1), homozygous for the 2 allele (Hp 2-2) or who are heterozygous at the haptoglobin locus (Hp 2-1). We have established 100% concordance between the haptoglobin phenotype as determined from plasma and the haptoglobin genotype as determined from genomic DNA by the polymerase chain reaction (Koch W, et al Clin Chem 2002; 277:13635-40). An unambiguous haptoglobin phenotype was obtained on greater than 99.6% of all samples assayed. Haptoglobin phenotyping was performed with no knowledge of the patients clinical or treatment status. All analyses of the HOPE Study data were carried out using SAS 6.02. Baseline characteristics of patients according to haptoglobin were compared by t tests or .chi^2 tests as appropriate. […] Patient characteristics of HOPE samples undergoing haptoglobin phenotyping: Haptoglobin phenotype was obtained on 3176 patients (1078 diabetics) from the original HOPE cohort for whom plasma was originally archived. These patients represented a randomly selected consecutive series of patients from the entire HOPE cohort.

macrophages = assay: Cholesterol efflux from macrophage by serum from treated diabetic mice; conditions: for effect on cholesterol efflux activity: Hp 2-2 diabetic mice
[3] = tested on: patients at high risk of cardiovascular events; conditions: HOPE study as published; daily 400 IU for 4.5 years; not stratified by haptoglobin; cited from earlier work
[4] = CVD outcomes and Vitamin C supplementation (data not shown); assay type: in vivo, human; conditions: unselected samples or Diabetic patients
[5] = DM patients with the other haptoglobin phenotypes (Hp 1-1 and Hp 2-1)
[6] = all patients, Hp 1-1, supplementation vs placebo
[7] = all patients, Hp 2-1, supplementation vs placebo
[8] = all patients, Hp 2-2, supplementation vs placebo
[9] = entire sample, regardless of haptoglobin type
[10] = serum from diabetic Hp 1-1 mice treated orally 28 days (vitamin E 1 mg/kg/day; GPx mimetic 2 mg/kg/day)
[11] = serum from diabetic Hp 2-2 mice treated orally 28 days (vitamin E 1 mg/kg/day; GPx mimetic 2 mg/kg/day)
[12] = DM patients only, Hp 2-2, listed as vitamin E

For `Cc1c(C)c2c(c(C)c1O)CCC(C)(CCCC(C)CCCC(C)CCCC(C)C)O2` (racemic) [all-rac-.alpha-tocopherol], the specific activity [1] is listed as 1.10 IU per milligram.
For `Cc1c(C)c2c(c(C)c1O)CC[C@@](C)(CCC[C@H](C)CCC[C@H](C)CCCC(C)C)O2` [RRR-alpha-tocopherol], the specific activity [1] is given as 1.49 IU per milligram.
With `CCOC(=O)[C@H](CCc1ccccc1)N[C@@H](C)C(=O)N1[C@H](C(=O)O)C[C@@H]2CCC[C@@H]21` [Ramipril, ramipril] the “Relative Risk Ratio, Primary (non-fatal MI, stroke or cardiovascular death) (95% CI)” value ([2]; DM patients only, Hp 1-1) was 0.78(0.35-1.75), the “Relative Risk Ratio, Primary (non-fatal MI, stroke or cardiovascular death) (95% CI)” value ([2]; DM patients only, Hp 2-1) was 0.97 and the “Relative Risk Ratio, Primary (non-fatal MI, stroke or cardiovascular death) (95% CI)” value ([2]; DM patients only, Hp 2-2) was 0.57. For the same molecule, the “Relative Risk Ratio, Primary (non-fatal MI, stroke or cardiovascular death) (95% CI)” value ([2]; DM patients only, Hp 2-2, listed as ramipril) was 0.57, the “benefit for any of the primary CV outcomes” value (“benefit for any” below) [2, 5] was “no benefit” and the “Relative Risk Ratio, Primary (non-fatal MI, stroke or cardiovascular death) (95% CI)” value [2, 6] was 0.74(0.47-1.17). For the same molecule, the “Relative Risk Ratio, Primary (non-fatal MI, stroke or cardiovascular death) (95% CI)” value [2, 7] was 0.81 (0.62-1.07), the “Relative Risk Ratio, Primary (non-fatal MI, stroke or cardiovascular death) (95% CI)” value [2, 8] was 0.76 and the “composite endpoint (non-fatal MI, stroke or cardiovascular death)” value ([2]; diabetic individuals in the HOPE study having a Hp 2-2 phenotype) was “statistically significant reduction”. The “benefit for any” value [2, 9] was “no significant benefit” and the “benefit of supplementation” value [2] was “no significant benefit”.
For `CC(=O)Oc1c(C)c(C)c2c(c1C)CC[C@@](C)(CCC[C@H](C)CCC[C@H](C)CCCC(C)C)O2` [RRR-.alpha-tocopherol acetate], the specific activity [1] is listed as 1.36 IU per milligram.
In the case of `CC(=O)Oc1c(C)c(C)c2c(c1C)CC[C@@](C)(CCC[C@H](C)CCC[C@H](C)CCCC(C)C)O2` [Vitamin E], the “effect on cholesterol efflux activity” value (macrophages) is reported as “increased”, the “Tritiated cholesterol efflux from macrophages” value (“Tritiated cholesterol efflux” for short) (macrophages; [10]) is reported as 16.1 +/− 0.5 % per hour and the “Tritiated cholesterol efflux” value (macrophages; [11]) is reported as 15.3 +/− 0.7 % per hour. The “Relative Risk Ratio, CV death (95% CI)” value ([2]; DM patients only, Hp 1-1) was 0.64, the “Relative Risk Ratio, MI (95% CI)” value ([2]; DM patients only, Hp 1-1) was 0.83 and the “Relative Risk Ratio, Primary (non-fatal MI, stroke or cardiovascular death) (95% CI)” value ([2]; DM patients only, Hp 1-1) was 0.84. For the same molecule, the “Relative Risk Ratio, Stroke (95% CI)” value ([2]; DM patients only, Hp 1-1) was 2.24, the “Relative Risk Ratio, CV death (95% CI)” value ([2]; DM patients only, Hp 2-1) was 1.0(0.53-1.93) and the “Relative Risk Ratio, MI (95% CI)” value ([2]; DM patients only, Hp 2-1) was 0.99. For the same molecule, the “Relative Risk Ratio, Primary (non-fatal MI, stroke or cardiovascular death) (95% CI)” value ([2]; DM patients only, Hp 2-1) was 1.08, the “Relative Risk Ratio, Stroke (95% CI)” value ([2]; DM patients only, Hp 2-1) was 0.99(0.45-2.18) and the “Relative Risk Ratio, CV death (95% CI)” value ([2]; DM patients only, Hp 2-2) was 0.45 (0.23-0.90) *. The “Relative Risk Ratio, MI (95% CI)” value ([2]; DM patients only, Hp 2-2) was 0.57, the “Relative Risk Ratio, Primary (non-fatal MI, stroke or cardiovascular death) (95% CI)” value ([2]; DM patients only, Hp 2-2) was 0.70(0.45-1.10) and the “Relative Risk Ratio, Stroke (95% CI)” value ([2]; DM patients only, Hp 2-2) was 1.15. For the same molecule, the “Relative Risk Ratio, CV death (95% CI)” value [2, 12] was 0.45, the “Relative Risk Ratio, MI (95% CI)” value [2, 12] was 0.57 and the “benefit for any” value [2, 5] was “no significant benefit”. The “Relative Risk Ratio, CV death (95% CI)” value ([2]; all patients, Hp 1-1) was 1.10, the “Relative Risk Ratio, MI (95% CI)” value ([2]; all patients, Hp 1-1) was 0.79 and the “Relative Risk Ratio, Stroke (95% CI)” value ([2]; all patients, Hp 1-1) was 1.50. For the same molecule, the “Relative Risk Ratio, Primary (non-fatal MI, stroke or cardiovascular death) (95% CI)” value [2, 6] was 0.97(0.63-1.50), the “Relative Risk Ratio, CV death (95% CI)” value ([2]; all patients, Hp 2-1) was 1.07(0.69-1.64) and the “Relative Risk Ratio, MI (95% CI)” value ([2]; all patients, Hp 2-1) was 1.02(0.75-1.38). For the same molecule, the “Relative Risk Ratio, Stroke (95% CI)” value ([2]; all patients, Hp 2-1) was 0.92(0.53-1.60), the “Relative Risk Ratio, Primary (non-fatal MI, stroke or cardiovascular death) (95% CI)” value [2, 7] was 0.96(0.74-1.25) and the “Relative Risk Ratio, CV death (95% CI)” value ([2]; all patients, Hp 2-2) was 0.75. For the same molecule, the “Relative Risk Ratio, MI (95% CI)” value ([2]; all patients, Hp 2-2) was 0.94(0.68-1.30), the “Relative Risk Ratio, Stroke (95% CI)” value ([2]; all patients, Hp 2-2) was 0.85 and the “Relative Risk Ratio, Primary (non-fatal MI, stroke or cardiovascular death) (95% CI)” value [2, 8] was 0.92. The “benefit for any” value [2, 9] was “no significant benefit”, the “benefit of supplementation” value [2] was “no significant benefit” and the “clinical benefit on cardiovascular (CV) outcomes” value [3] was “failed to demonstrate any clinical benefit”.
In the case of `CC(=O)Oc1c(C)c(C)c2c(c1C)CCC(C)(CCCC(C)CCCC(C)CCCC(C)C)O2` (racemic) [all-rac-α-tocopherol acetate], the specific activity [1] is given as 1.00 IU per milligram.
In the case of `O=C1O[C@H]([C@@H](O)CO)C(O)=C1O` [Vitamin C], the “correlation between CVD outcomes and supplementation” value [4] is reported as “no correlation”.
With `CC1(C)CN[Se]c2ccccc21` [GPx mimetic] the “effect on cholesterol efflux activity” value (macrophages) was “increased”, the “Tritiated cholesterol efflux” value (macrophages; [10]) was 14.6 +/− 0.4 % per hour and the “Tritiated cholesterol efflux” value (macrophages; [11]) was 14.0 +/− 0.5 % per hour.
